# Read-outs that look alike come from different tables or passages of the source. Marks after values point to notes of the source that are not given here. Bridges are numbered along the chain shown (N, C = ends). Where no end group is shown, it is not given here.
# Tests used:
# mTRΔ8 [1] = biological target: T1, mTRΔ8 (Mus musculus, UniProt Q9JLT4); assay: Substrate reduction by truncated mammalian TR; format: biochemical; conditions: for pH optimum of substrate reduction: truncated Δ8 enzyme; for Reduction by the truncated enzyme (in words): direct reduction by the N-terminal reaction center
# DmTRΔ8 [2] = biological target: T2, DmTRΔ8 (Drosophila melanogaster, UniProt P91938); assay: Substrate reduction by truncated Drosophila TR; format: biochemical
# T2 sequence (P91938 1-483 isoform P91938-2 limits assumed): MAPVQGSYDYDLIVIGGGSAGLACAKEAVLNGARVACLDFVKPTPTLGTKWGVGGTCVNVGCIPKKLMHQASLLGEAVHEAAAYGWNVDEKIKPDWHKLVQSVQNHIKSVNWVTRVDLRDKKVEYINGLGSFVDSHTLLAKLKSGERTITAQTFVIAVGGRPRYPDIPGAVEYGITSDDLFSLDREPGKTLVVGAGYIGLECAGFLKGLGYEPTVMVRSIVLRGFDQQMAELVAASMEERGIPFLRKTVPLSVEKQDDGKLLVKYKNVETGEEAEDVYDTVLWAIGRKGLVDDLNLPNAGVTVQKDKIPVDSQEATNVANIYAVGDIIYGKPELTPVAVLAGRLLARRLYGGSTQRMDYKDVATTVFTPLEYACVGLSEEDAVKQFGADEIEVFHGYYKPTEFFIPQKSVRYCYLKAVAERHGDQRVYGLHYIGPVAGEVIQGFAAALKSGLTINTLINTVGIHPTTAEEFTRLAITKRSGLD
# [3] = cited from earlier work
# DmTR-SCCS = DmTR-SCCS (Drosophila melanogaster, UniProt P91938); assay: Substrate reduction by full-length Drosophila TR
# Chain of DmTR-SCCS (P91938 1-491 isoform P91938-2): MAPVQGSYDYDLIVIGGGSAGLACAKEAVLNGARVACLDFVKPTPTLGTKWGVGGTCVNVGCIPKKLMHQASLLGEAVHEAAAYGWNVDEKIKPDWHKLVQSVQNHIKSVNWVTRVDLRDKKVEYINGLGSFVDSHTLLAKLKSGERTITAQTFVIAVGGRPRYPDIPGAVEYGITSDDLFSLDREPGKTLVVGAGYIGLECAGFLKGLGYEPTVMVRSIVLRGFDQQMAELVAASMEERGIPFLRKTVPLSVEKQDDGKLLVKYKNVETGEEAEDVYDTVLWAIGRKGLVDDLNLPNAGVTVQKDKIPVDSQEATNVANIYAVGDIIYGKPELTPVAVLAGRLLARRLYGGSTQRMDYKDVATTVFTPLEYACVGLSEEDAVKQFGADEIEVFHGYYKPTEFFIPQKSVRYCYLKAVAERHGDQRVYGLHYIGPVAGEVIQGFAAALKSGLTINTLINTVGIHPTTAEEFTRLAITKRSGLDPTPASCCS
# mTR-GCUG [4] = biological target: T3, mTR-GCUG (Mus musculus, UniProt Q9JLT4); assay: Substrate reduction by full-length wild type mammalian TR
# mTR-GCUG [5] = biological target: T3, mTR-GCUG; assay: Inhibition of TR by gold compounds; format: biochemical; conditions: full-length wild type (Sec) enzyme, 4 nM enzyme, 3 mM DTNB, pH 7.4
# mTRΔ8 [6] = biological target: T1, mTRΔ8; assay: Inhibition of TR by gold compounds; format: biochemical; conditions: truncated enzyme missing C-terminal tail, 2 nM enzyme, 3 mM DTNB, pH 7.4
# mTR-GCCG = mTR-GCCG (Mus musculus, UniProt Q9JLT4); format: biochemical; conditions: full-length enzyme without Sec (Cys2 mutant), 4 nM enzyme, 3 mM DTNB, pH 7.4
# DmTRΔ8 [7] = biological target: T2, DmTRΔ8; conditions: pH 7.0; cited from earlier work
# mTRΔ8 [8] = biological target: T1, mTRΔ8; conditions: pH 7.0; cited from earlier work
compound,measurement,setting,value
"O[C@@H]1CSSC[C@H]1O (relative stereo) [DTT(ox), trans-4,5-dihydroxy-1,2-dithiane]",Activity at 5 mM Substrate,mTRΔ8 [1]; pH 7.0,0.234 mol NADPH/min/mol TR
same,Activity at 5 mM Substrate,DmTRΔ8 [2]; pH 7.0,0.109 mol NADPH/min/mol TR
same,Leaving Group pKa,[3],9.2 ^e
"O=C(O)c1cc(SSc2ccc([N+](=O)[O-])c(C(=O)O)c2)ccc1[N+](=O)[O-] [DTNB, 5,5′dithio-bis(2-nitrobenzoic acid), reference compound]",Activity at 5 mM Substrate,mTRΔ8 [1]; pH 7.0,2430 mol NADPH/min/mol TR
same,Activity at 5 mM Substrate,DmTRΔ8 [2]; pH 7.0,519 mol NADPH/min/mol TR
"N[C@@H](CCC(=O)N[C@@H](CSN=O)C(=O)NCC(=O)O)C(=O)O [GSNO, S-nitrosoglutathione]",Leaving Group pKa,[3]; HNO in GSNO,4.7
"O=C(O)CCCC[C@@H]1CCSS1 [Lipoic Acid, lipoic acid]",kcat increase compared to the WT enzyme at pH 7.0,mTRΔ8 [1]; mTRΔ8 at pH 6.1,~3.6 fold
same,Activity at 5 mM Substrate,mTRΔ8 [1]; pH 6.1,102 mol NADPH/min/mol TR
same,Activity at 5 mM Substrate,mTRΔ8 [1]; pH 7.0,87.7 mol NADPH/min/mol TR
same,pH optimum of substrate reduction,mTRΔ8 [1],6.1
same,Turnover faster in comparison to DTT(ox),"DmTRΔ8 [2]; 5 mM substrate, pH 7.0",190 fold
same,Activity at 5 mM Substrate,DmTRΔ8 [2]; pH 7.0,20.8 mol NADPH/min/mol TR
same,pH optimum of substrate reduction,DmTRΔ8 [2]; truncated DmTRΔ8,~7.5
same,pH optimum of substrate reduction,DmTR-SCCS; full-length DmTR,~7.5
same,pH optimum of substrate reduction,mTR-GCUG [4]; full-length enzyme,~7.5
CC(=O)OC[C@H]1O[C@@H]([S-])[C@H](OC(C)=O)[C@@H](OC(C)=O)[C@@H]1OC(C)=O.CCP(CC)CC.[Au+] [auranofin],IC50,mTR-GCUG [5],75 nM
same,IC50,mTRΔ8 [6],850 nM
OC[C@H]1O[C@H]([S-])[C@H](O)[C@@H](O)[C@@H]1O.[Au+] [aurothioglucose],IC50,mTR-GCUG [5],83 nM
same,IC50,mTR-GCCG,142 nM
same,IC50,mTRΔ8 [6],25 nM
N[C@@H](CSSC[C@H](N)C(=O)O)C(=O)O [cystine],Reduction by the truncated enzyme (in words),mTRΔ8 [1],could not be reduced
same,Leaving Group pKa,[3]; thiolate,~ 8.3
same,Reduction by the WT enzyme (in words),mTR-GCUG [4],cannot be reduced
NC(=O)CCCCC1CCSS1 (centres unmarked) [lipoamide],Higher activity in presence of 50 mM acetate,mTRΔ8 [1]; pH 6.1,23.6%
same,Higher activity in presence of 50 mM acetate,mTRΔ8 [1]; pH 7.0,17.5%
same,Drop in Km compared to lipoic acid,mTRΔ8 [1]; truncated enzyme,~3 fold
same,pH optimum of substrate reduction,mTRΔ8 [1],~ 8.5
"O=[Se]([O-])[O-].[Na+].[Na+] [selenite, sodium selenite]",Activity lower than the WT enzyme,"mTRΔ8 [1]; mTRΔ8 versus WT, pH 7.0",6 fold
same,pH optimum of substrate reduction,mTRΔ8 [1],~6.0
N[C@@H](C[Se][Se]C[C@H](N)C(=O)O)C(=O)O [selenocystine],Reduction by the truncated enzyme (in words),mTRΔ8 [1],cannot directly reduce
same,pH optimum of substrate reduction,mTRΔ8 [1],~8.0
same,Difference in activities between the mammalian enzyme and DmTR,"DmTR-SCCS; pH 7.0, 91 μM substrate",~ 3 fold
O=S(O)O [sulfite],Activity as substrate (in words),"mTR-GCUG [4]; TR form not stated, data not shown",unable to detect activity
PTPASCCS(ox): Cys1-Cys2 vicinal disulfide peptide substrate of DmTR (disulfide 6-7),Activity at 5 mM Substrate,DmTRΔ8 [7],233 mol NADPH/min/mol TR
PTVTGCCG(ox): peptide containing a Cys1-Cys2 vicinal disulfide bond (8-membered ring) (disulfide 6-7),Activity at 5 mM Substrate,mTRΔ8 [8],0.153 mol NADPH/min/mol TR

# Source: article PMC2754045 (Biochemistry, 2009)
